Columns and labels:
[1] = tested on: DU145; assay: MTT cytotoxicity assay, DU145 prostate cancer cells; assay type: cell-based, human; conditions: for IC50: Homo sapiens, DU-145, DU145 prostate cancer cells, MTT; for SI (DU145): selectivity index relative to normal human fibroblasts HSF1184
Description: (§1) Three different cancer cell lines; namely, DU145 derived from prostate cancer cells (American Type Culture Collection No. HTB-81), HepG2 derived from human liver cancer cells (American Type Culture Collection No. HB-8065), MBA-MB-231 derived from breast cancer cells (American Type Culture Collection No. HTB-26) and normal human fibroblasts (HSF1184) were grown and cultivated according to our previously described method. Briefly, cells were seeded in Dulbecco′s modified Eagle’s media (DMEM) supplemented with 10% heat-inactivated fetal bovine serum (FBS), 100 IU/mL penicillin, […] and 2 mM glutamine. The cells were maintained in a humidified atmosphere with 5% CO2 at 37 °C for 8 days, with subsequent media renewal. Then, cells were plated in a 96-well flat bottom plate at a concentration of 10^4 cells/well in fresh complete growth medium for 24 h and maintained in 37 °C in a 5% CO2-humidified incubator.
(§2) Cells in 96-well flat bottom plates were first serum-starved for 4 h by replacing cultured media with fresh medium (without serum). All synthesized compounds were properly dissolved in dimethyl sulfoxide (DMSO) to produce a stock concentration of 0.1 M. Cells were incubated with a range of different concentrations of the compounds we were testing (0–1000 μM) to give a final volume of 300 µL per well. In comparison, cells were incubated either alone with DMSO (negative control) or with 5-fluorouracil as a positive control. DMSO was used as a vehicle for the dissolution of the tested compounds and its final concentration in cultured media was less than 0.1%. Triplicate wells were designed for each individual dose. The compounds we synthesized were evaluated for in-vitro cytotoxicity properties via the standard 3-(4,5-dimethythiazol-2-yl)-2,5-diphenyl tetrazolium bromide (MTT) assay accordingly to our previously-reported work. The normal human fibroblast line (HSF1184) was used as a standard reference for the measurement of selectivity indexes (SIs) relative to cancer cell lines. The IC50 values and SIs were calculated accordingly.

[2] = tested on: MDA-MB-231; assay: MTT cytotoxicity assay, MDA-MB-231 breast cancer cells; assay type: cell-based, human; conditions: for IC50: Homo sapiens, MDA-MB-231 breast cancer cells, MTT; for SI (MDA-MB-231): selectivity index relative to normal human fibroblasts HSF1184
Description: as §1, §2

[3] = tested on: HepG2; assay: MTT cytotoxicity assay, HepG2 liver cancer cells; assay type: cell-based, human; conditions: for IC50: MTT; for SI (HepG2): selectivity index relative to normal human fibroblasts HSF1184
Description: as §1, §2

[4] = tested on: HSF1184; assay: MTT cytotoxicity assay, normal human fibroblasts HSF1184; assay type: cell-based; conditions: for IC50: Fibroblast
Description: as §1, §2

[5] = tested on: HepG2, DU145 and MBA-MB-231 cancer cell lines; assay: MTT cytotoxicity, stated jointly for the three cancer cell lines; assay type: cell-based; conditions: Homo sapiens; summary statement for HepG2, DU145 and MBA-MB-231; read-out: IC50 against all three cancer cell lines
Description: as §1, §2

[6] = Homo sapiens, HepG2, HepG2 liver cancer cells

melting point | Structure (SMILES) | IC50 [1] | SI (DU145) [1] | IC50 [2] | SI (MDA-MB-231) [2] | IC50 [3, 6] | SI (HepG2) [3] | IC50 [4] | IC50 [5] | IC50 ([3]; HepG2 liver cancer cells) | IC50 Values HSF1184 [4]
– | O=c1[nH]cc(F)c(=O)[nH]1 [5-fluorouracil, reference compound] | 1.92 ± 0.24 µM | 96.60 | 2.21 ± 0.28 µM | 83.93 | 1.65 ± 0.09 µM | 112.41 | 185.5 ± 0.48 µM | – | – | –
– | COc1nc(-c2cc(Cl)sc2Cl)cc(-c2ccccc2)c1C#N [5a, 6-(2,5-dichlorothiophen-3-yl)-2-methoxy-4-phenylpyridine-3-carbonitrile] | > 100 µM | – | 21.2 ± 0.37 µM | – | 49.6 ± 0.51 µM | – | 82.39 ± 0.04 µM | > 100 µM | – | –
– | COc1nc(-c2cc(Cl)sc2Cl)cc(-c2ccc(C)cc2)c1C#N [5b, 6-(2,5-dichlorothiophen-3-yl)-2-methoxy-4-p-tolylpyridine-3-carbonitrile] | > 100 µM | – | > 100 µM | – | 9.48 ± 0.63 µM | – | 114.5 ± 0.38 µM | > 100 µM | – | –
195 to 196 °C | COc1nc(-c2cc(Cl)sc2Cl)cc(-c2ccc(Cl)cc2)c1C#N [5c, 4-(4-chlorophenyl)-6-(2,5-dichlorothiophen-3-yl)-2-methoxypyridine-3-carbonitrile] | 42.36 ± 0.21 µM | 2.18 | 28.3 ± 0.42 µM | 3.26 | > 100 µM | – | 92.38 ± 0.38 µM | > 100 µM | – | –
214 to 215 °C | COc1nc(-c2cc(Cl)sc2Cl)cc(-c2ccc(Br)cc2)c1C#N [5d, 4-(4-bromophenyl)-6-(2,5-dichlorothiophen-3-yl)-2-methoxypyridine-3-carbonitrile] | 3.63 ± 0.17 µM | 116.65 | 2.59 ± 0.04 µM | 163.49 | 1.53 µM | 261.39 | 423.4 ± 0.49 µM | 1 to 5 µM | 1.62 ± 0.15 µM | high
179 to 180 °C | COc1cccc(-c2cc(-c3cc(Cl)sc3Cl)nc(OC)c2C#N)c1 [5f, 6-(2,5-dichlorothiophen-3-yl)-2-methoxy-4-(3-methoxyphenyl)pyridine-3-carbonitrile] | 27.4 ± 0.63 µM | 3.48 | 43.49 ± 0.06 µM | 2.20 | 18.3 ± 0.31 µM | 5.21 | 95.49 ± 0.29 µM | – | – | –
– | COc1nc(-c2cc(Cl)sc2Cl)cc(-c2cccc([N+](=O)[O-])c2)c1C#N [5g, 6-(2,5-dichlorothiophen-3-yl)-2-methoxy-4-(3-nitrophenyl)pyridine-3-carbonitrile] | 4.97 ± 0.35 µM | – | 1.93 ± 0.03 µM | – | 2.11 ± 0.26 µM | – | 135.6 ± 0.55 µM | 1 to 5 µM | – | high
204 to 205 °C | COc1nc(-c2cc(Cl)sc2Cl)cc(-c2ccc([N+](=O)[O-])cc2)c1C#N [5h, 6-(2,5-dichlorothiophen-3-yl)-2-methoxy-4-(4-nitrophenyl)pyridine-3-carbonitrile] | 1.77 ± 0.38 µM | 105.93 | 2.14 ± 0.06 µM | 87.61 | 1.53 ± 0.38 µM | 122.54 | 187.49 ± 0.14 µM | 1 to 5 µM | – | high
– | COc1ccc(-c2cc(-c3cc(Cl)sc3Cl)nc(OC)c2C#N)cc1Br [5i, 4-(3-bromo-4-methoxyphenyl)-6-(2,5-dichlorothiophen-3-yl)-2-methoxypyridine-3-carbonitrile] | 1.82 ± 0.21 µM | – | 1.38 ± 0.03 µM | – | 1.53 µM | – | 234.5 ± 0.27 µM | 1 to 5 µM | 1.72 ± 0.42 µM | high
127 to 128 °C | COc1cc(-c2ccccc2)cc(-c2cc(Cl)sc2Cl)n1 [6a, 2-(2,5-dichlorothiophen-3-yl)-6-methoxy-4-phenylpyridine] | 53.49 ± 0.02 µM | 1.67 | 15.3 ± 0.41 µM | 5.82 | 32.31 ± 0.23 µM | 2.77 | 89.34 ± 0.55 µM | – | – | –
150 to 151 °C | COc1cc(-c2ccc(C)cc2)cc(-c2cc(Cl)sc2Cl)n1 [6b, 2-(2,5-dichlorothiophen-3-yl)-6-methoxy-4-p-tolylpyridine] | 64.59 ± 0.08 µM | 1.59 | 52.39 ± 0.31 µM | 1.95 | 39.5 ± 0.58 µM | 2.59 | 102.4 ± 0.3 µM | – | – | –
– | COc1cc(-c2ccc(Cl)cc2)cc(-c2cc(Cl)sc2Cl)n1 [6c, 4-(4-chlorophenyl)-2-(2,5-dichlorothiophen-3-yl)-6-methoxypyridine] | 21.65 ± 0.12 µM | – | – | – | 11.3 ± 0.22 µM | – | 112.4 ± 0.47 µM | – | – | –
148 to 149 °C | COc1cc(-c2ccc(Br)cc2)cc(-c2cc(Cl)sc2Cl)n1 [6d, 4-(4-bromophenyl)-2-(2,5-dichlorothiophen-3-yl)-6-methoxypyridine] | 29.4 ± 0.88 µM | 3.14 | 15.4 ± 0.48 µM | 6.00 | 64.59 ± 0.33 µM | 1.43 | 92.55 ± 0.42 µM | – | – | –
135 to 136 °C | COc1cc(-c2ccccc2OC)cc(-c2cc(Cl)sc2Cl)n1 [6e, 2-(2,5-dichlorothiophen-3-yl)-6-methoxy-4-(2-methoxyphenyl)pyridine] | – | – | – | – | – | – | – | – | – | –
156 to 157 °C | COc1cccc(-c2cc(OC)nc(-c3cc(Cl)sc3Cl)c2)c1 [6f, 2-(2,5-dichlorothiophen-3-yl)-6-methoxy-4-(3-methoxyphenyl)pyridine] | 18.45 ± 0.02 µM | 5.68 | 64.39 ± 0.28 µM | 1.63 | 38.5 ± 0.62 µM | 2.73 | 104.8 ± 0.71 µM | – | – | –
182 to 183 °C | COc1cc(-c2cccc([N+](=O)[O-])c2)cc(-c2cc(Cl)sc2Cl)n1 [6g, 2-(2,5-dichlorothiophen-3-yl)-6-methoxy-4-(3-nitrophenyl)pyridine] | 25.4 ± 0.38 µM | 3.33 | 18.3 ± 0.34 µM | 4.61 | 39.43 ± 0.09 µM | 2.14 | 84.56 ± 0.4 µM | – | – | –

From publication PMC6891325, “The Synthesis, Characterization, Cytotoxic Activity Assessment and Structure-Activity Relationship of 4-Aryl-6-(2,5-dichlorothiophen-3-yl)-2-methoxypyridine-3-carbonitriles” (Molecules, 2019)
